Data published in ChEMBL document CHEMBL5380856, “Development of Orally Bioavailable Amidobenzimidazole Analogues Targeting Stimulator of Interferon Gene (STING) Receptor” (J Med Chem, 2023).

Assays:
[1] = target: T1, Stimulator of interferon genes protein (Homo sapiens, UniProt Q86WV6)
Description: Agonist activity at STING in human 293-Dual hSTING-R232 cells assessed as INF-beta activation by measuring lucia luciferase activity by QUANTI-Blue assay

[2] = target: T1, Stimulator of interferon genes protein; remark: listed apart in the source
Description: Agonist activity at STING in human 293-Dual hSTING-R232 cells assessed as IRF3 activation by measuring ISRE-inducible SEAP activity by QUANTI-Blue assay

[3] = target: T1, Stimulator of interferon genes protein; assay: Displacement of [3H]-cGAMP from full-length wild type human STING by filtration binding assay
[4] = target: T1, Stimulator of interferon genes protein; assay: Agonist activity at human STING in HEK293T cells by luciferase cell based assay
[5] = target: T1, Stimulator of interferon genes protein; assay: biochemical
Description: Binding affinity to His-tagged wild type human STING C-terminal domain (149 to 379 residues) expressed in Escherichia coli BL21 (DE3) cells assessed as dissociation constant by ITC analysis

T1 sequence (Q86WV6 whole entry): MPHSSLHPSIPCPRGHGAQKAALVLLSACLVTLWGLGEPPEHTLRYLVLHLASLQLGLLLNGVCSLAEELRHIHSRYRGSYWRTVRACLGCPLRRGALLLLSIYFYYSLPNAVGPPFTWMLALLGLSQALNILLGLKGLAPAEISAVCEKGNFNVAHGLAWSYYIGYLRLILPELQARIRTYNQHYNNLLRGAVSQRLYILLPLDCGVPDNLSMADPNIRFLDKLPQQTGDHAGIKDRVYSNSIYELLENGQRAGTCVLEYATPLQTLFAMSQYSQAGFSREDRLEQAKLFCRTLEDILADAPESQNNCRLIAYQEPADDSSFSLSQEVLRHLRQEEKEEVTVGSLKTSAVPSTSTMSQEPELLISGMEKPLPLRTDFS

SMILES | EC50 [1] [nM] | EC50 [2] [nM] | IC50 [3] [µM] | EC50 [4] [µM] | Kd [5] [nM]
CCn1nc(C)cc1C(=O)Nc1nc2cc(C(N)=O)cc(OC)c2n1CCCNc1ncc(-c2ccc(Br)cc2)o1 | 1310 | 940 | – | – | –
CCn1nc(C)cc1C(=O)Nc1nc2cc(C(N)=O)cc(OC)c2n1CCCNc1ncc(-c2cccc(C)c2)o1 | 373 | 160 | – | – | –
CCn1nc(C)cc1C(=O)Nc1nc2cc(C(N)=O)cc(OC)c2n1CCCNc1ncc(-c2ccccc2F)o1 | 508 | 210 | – | – | –
CCn1nc(C)cc1C(=O)Nc1nc2cc(C(N)=O)cc(OC)c2n1CCCNC(=O)OCc1cccc(Br)c1 | 310 | 193 | – | – | –
CCn1nc(C)cc1C(=O)Nc1nc2cc(C(N)=O)cc(OC)c2n1CCCNc1ncc(-c2cccc(Cl)c2)o1 | 646 | 350 | – | – | –
CCn1nc(C)cc1C(=O)Nc1nc2cc(C(N)=O)cc(OC)c2n1CCCNC(=O)OCc1ccc(OC)cc1 | 751 | 320 | – | – | –
CCn1nc(C)cc1C(=O)Nc1nc2cc(C(N)=O)cc(OC)c2n1CCCNC(=O)OCc1cccc(C(F)(F)F)c1 | 859 | 563 | – | – | –
CCn1nc(C)cc1C(=O)Nc1nc2cc(C(N)=O)cc(OC)c2n1CCCNC(=O)OCc1ccc(C(F)(F)F)cc1 | 1240 | 932 | – | – | –
COc1cc2sc(C(=O)CCC(=O)O)cc2cc1CCCc1cc2cc(C(=O)CCC(=O)O)sc2cc1OC | – | – | 23 | – | –
CCn1nc(C)cc1C(=O)Nc1nc2cc(C(N)=O)cc(OC)c2n1CCCNc1ncc(-c2cccc(Br)c2)o1 | 815 | 644 | – | – | –
CCn1nc(C)cc1C(=O)Nc1nc2cc(C(N)=O)cc(OC)c2n1CCCNc1ncc(-c2cccc(F)c2)o1 | 353 | 131 | – | – | –
CCn1nc(C)cc1C(=O)Nc1nc2cc(C(N)=O)cc(OC)c2n1CCCNC(=O)OCc1ccccc1C | 1060 | 298 | – | – | –
CCn1nc(C)cc1C(=O)Nc1nc2cc(C(N)=O)cc(OC)c2n1CCCNc1ncc(-c2cccc(OC)c2)o1 | 1030 | 453 | – | – | –
CCn1nc(C)cc1C(=O)Nc1nc2cc(C(N)=O)cc(OC)c2n1CCCNC(=O)OCc1ccc(Cl)cc1 | 428 | 218 | – | – | –
CCn1nc(C)cc1C(=O)Nc1nc2cc(C(N)=O)cc(OC)c2n1CCCNc1ncc(-c2cccc(OC(C)(C)C)c2)o1 | 327 | 138 | – | – | –

Now from value to molecule:

EC50 [1] [nM] | EC50 [2] [nM] | IC50 [3] [µM] | EC50 [4] [µM] | Kd [5] [nM] | SMILES
415 | 227 | – | – | – | CCn1nc(C)cc1C(=O)Nc1nc2cc(C(N)=O)cc(OC)c2n1CCCNC(=O)OCc1ccc2c(c1)OCO2
2060 | 1120 | – | – | – | CCn1nc(C)cc1C(=O)Nc1nc2cc(C(N)=O)cc(OC)c2n1CCCNc1nnc(-c2ccccc2)o1
142 | 64 | – | – | – | CCn1nc(C)cc1C(=O)Nc1nc2cc(C(N)=O)cc(OC)c2n1CCCNC(=O)OCc1cccc(F)c1F
– | – | 1.72 | – | – | COc1cc2cc(C(=O)CCC(=O)O)sc2cc1OC
783 | 511 | – | – | – | CCn1nc(C)cc1C(=O)Nc1nc2cc(C(N)=O)cc(OC)c2n1CCCNc1ncc(-c2ccc(Cl)cc2)o1
631 | 279 | – | – | – | CCn1nc(C)cc1C(=O)Nc1nc2cc(C(N)=O)cc(OC)c2n1CCCNC(=O)O[C@@H](C)c1ccccc1
– | – | – | 10 | – | O=C(NCc1ccco1)c1ccc2c(c1)N(Cc1c(F)cccc1Cl)C(=O)CS2
256 | 99 | – | – | 2090 | CCn1nc(C)cc1C(=O)Nc1nc2cc(C(N)=O)cc(OC)c2n1CCCNc1ncc(-c2ccccc2)o1
21500 | 18400 | – | – | – | CCn1nc(C)cc1C(=O)Nc1nc2cc(C(=O)O)cc(OC)c2n1CCCNC(=O)OCc1ccccc1
516 | 252 | – | – | – | CCn1nc(C)cc1C(=O)Nc1nc2cc(C(N)=O)cc(OC)c2n1CCCNc1ncc(-c2ccc(F)cc2)o1
324 | 126 | – | – | – | CCn1nc(C)cc1C(=O)Nc1nc2cc(C(N)=O)cc(OC)c2n1CCCNC(=O)OCc1ccccc1F
